For orientation: IC50 means the concentration that inhibits the measured activity by half. Read a high IC50 as weaker potency in that assay.

Consider 32 molecules from patent US5256686A, “Phenylalkan(en)oic acid” (Ono Pharmaceutical Co., Ltd., priority 1989, dated 1993).

The assay has as its target T1, human PMNL LTB4 receptor (Homo sapiens, UniProt Q15722).
T1 construct: endogenous in cells; host or cells: human polymorphonuclear leukocytes (PMNL), intact cells
The assay is described as follows: Binding affinity of 3H-LTB4 antagonist to human PMNL LTB4 receptor (inhibition of specific 3H-LTB4 binding). Particulars: 1 nM 3H-LTB4, human PMNLs, 4° C., 20 min. As for the experimental part: Human PMNLS (1×10^7 cells) were incubated with 1 nM ^3 H-LTB4 in Hanks balanced salt solution (1 ml) at 4° C. for 20 min. in the presence or absence of increasing concentrations of unlabeled LTB4 or various compounds. Free ^3 H-LTB4 was separated from PMNLs-bound ligands by vacuum filteration through Whatman GF/B or C glass fiber filters. The filters were then washed rapidly 4 times with 2.5 ml of the ice-cold phosphate buffered saline. The radioactivity retained in the filter was determined by liquid scintillation counting. Specific binding was defined as the difference between total binding and binding in the presence of 3 μM LTB4 (nonspecific binding). The inhibitory effect of specific ^3 H-LTB4 binding was calculated from the following equation.
The percentage of inhibition (%)=100-(B1 /B0 ×100)
B1 : specific ^3 H-LTB4 binding in presence of antagonist
B0 : specific ^3 H-LTB4 binding in absence of antagonist

T1 sequence (Q15722 whole entry): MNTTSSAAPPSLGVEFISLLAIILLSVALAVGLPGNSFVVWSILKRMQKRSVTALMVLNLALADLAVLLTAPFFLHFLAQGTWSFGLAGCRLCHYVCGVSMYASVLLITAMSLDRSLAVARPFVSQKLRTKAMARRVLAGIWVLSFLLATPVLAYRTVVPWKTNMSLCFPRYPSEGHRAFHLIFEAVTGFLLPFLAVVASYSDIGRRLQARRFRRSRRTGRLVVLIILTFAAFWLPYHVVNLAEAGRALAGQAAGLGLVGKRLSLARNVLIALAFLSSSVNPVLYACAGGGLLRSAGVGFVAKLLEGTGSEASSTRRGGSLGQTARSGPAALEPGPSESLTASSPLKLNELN

The molecule `COc1ccc(/C=C/CCCCOc2cccc(N3C(=O)CCCS3(=O)=O)c2CCC(=O)O)cc1` [Example 36, 3-[1-[6-(4-methoxyphenyl)hex-5E-enyl]oxy-3-(perhydro-1,2-thiazin-1,1,3-trione-2-yl)benzen-2-yl]propionic acid] came in with an IC50 of 150 nM.

Molecule `COc1ccc(/C=C/CCCCOc2ccc(NC(=O)CCCC(=O)N(C)C)cc2CCC(=O)O)cc1OC` [1 (r), 3-[1-[6-(3,4-dimethoxyphenyl)hex-5E-enyl]oxy-4-(4-dimethylaminocarbonylbutanamido)benzen-2-yl]propionic acid] came in with an IC50 of 1100 nM.

As to `Cc1ccc(/C=C/CCCCOc2ccc(NC(=O)CCCC(=O)N(C)C)cc2CCC(=O)O)cc1` [1 (s), 3-[1-[6-(4-methylphenyl)hex-5E-enyl]oxy-4-(4-dimethylaminocarbonylbutanamido)benzen-2-yl]propionic acid], the half-inhibitory concentration (IC50) came out at 170 nM.

In the case of `COc1ccc(/C=C/CCCCOc2ccc(NS(=O)(=O)CCCC(=O)N(C)C)cc2CCC(=O)O)cc1` [7 (a), 3-[1-[6-(4-methoxyphenyl)hex-5E-enyl]oxy-4-(3-dimethylaminocarbonyl-n-propyl)sulfonylaminobenzen-2-yl]propionic acid], the IC50 was 30 nM.

Regarding `CCCCCOc1ccc(/C=C/CCCCOc2ccc(NC(=O)CCCC(=O)N(C)C)cc2CCC(=O)O)cc1` [1 (i), 3-[1-[6-(4-n-pentyloxyphenyl)hex-5E-enyl]oxy-4-(4-dimethylaminocarbonylbutanamido)benzen-2-yl]propionic acid], the IC50 worked out at 400 nM.

For the molecule `COc1ccc(/C=C/CCCCOc2cccc(C(=O)CCCCC(=O)N(C)C)c2CCC(=O)O)cc1` [Example 39, 3-[1-[6-(4-methoxyphenyl)hex-5E-enyl]oxy-3-(1-oxo-5-dimethylaminocarbonylpentyl)benzen-2-yl]propionic acid], the half-maximal inhibitory concentration (IC50) is 23 nM.

On to `COc1ccc(/C=C/CCCCOc2ccc(N(S(C)(=O)=O)S(C)(=O)=O)cc2CCC(=O)O)cc1` [Example 10, 3-[1-[6-(4-methoxyphenyl)hex-5E-enyl]oxy-4-dimesylaminobenzen-2-yl]propionic acid], for which the IC50 is 13 nM.

With `CCCOc1ccc(/C=C/CCCCOc2ccc(NC(=O)CCCC(=O)N(C)C)cc2CCC(=O)O)cc1` [1 (e), 3-[1-[6-(4-n-propoxyphenyl)hex-5E-enyl]oxy-4-(4-dimethylaminocarbonylbutanamido)benzen-2-yl]propionic acid], the IC50 stood at 80 nM.

For `COc1ccc(/C=C/CCCCOc2ccc(OCCCCC(=O)O)cc2CCC(=O)O)cc1` [Example 14, 3-[1-[6-(4-methoxyphenyl)hex-5E-enyl]oxy-4-(4-carboxylbutoxy)benzen-2-yl]propionic acid], the half-maximal inhibitory concentration (IC50) came out at 70 nM.

On to `COc1ccc(/C=C/CCCCOc2cccc(N(S(C)(=O)=O)S(C)(=O)=O)c2CCC(=O)O)cc1` [Example 35, 3-[1-[6-(4-methoxyphenyl)hex-5E-enyl]oxy-3-dimesylaminobenzen-2-yl]propionic acid], for which the IC50 turned out to be 200 nM.

The molecule `COc1ccc(/C=C/CCCCOc2ccc(NC(=O)CCCC(=O)O)cc2CCC(=O)O)cc1` [Example 2, 3-[1-[6-(4-methoxyphenyl)hex-5E-enyl]oxy-4-(4-carboxylbutanamido)benzen-2-yl]propionic acid] had a half-maximal inhibitory concentration (IC50) of 40 nM.

`CSc1ccc(/C=C/CCCCOc2ccc(NC(=O)CCCC(=O)N(C)C)cc2CCC(=O)O)cc1` [1 (q), 3-[1-[6-(4-methylthiophenyl)hex-5E-enyl]oxy-4-(4-dimethylaminocarbonylbutanamido)benzen-2-yl]propionic acid] registered an IC50 of 50 nM.

Molecule `C=CCOc1ccc(/C=C/CCCCOc2ccc(NC(=O)CCCC(=O)N(C)C)cc2CCC(=O)O)cc1` [1 (f), 3-[1-[6-[4-(2-propenyl)oxyphenyl]hex-5E-enyl]oxy-4-(4-dimethylaminocarbonylbutanamido)benzen-2-yl]propionic acid] displayed a half-maximal inhibitory concentration (IC50) of 50 nM.

`CCCCCCCCCCCCOc1ccc(NC(=O)CCCC(=O)N(C)C)cc1CCC(=O)O` [1 (c), 3-[1-n-dodecyloxy-4-(4-dimethylaminocarbonylbutanamido)benzen-2-yl]propionic acid]: the IC50 turned out to be 1000 nM.

Turning to `COc1ccc(/C=C/CCCCOc2ccc(NC(=O)CCCCO)cc2CCC(=O)O)cc1` [Example 4, 3-[1-[6-(4-methoxyphenyl)hex-5E-enyl]oxy-4-(5-hydroxypentanamido)benzen-2-yl]propionic acid], the IC50 is 90 nM.

Take `CN(C)C(=O)CCCC(=O)Nc1ccc(OCCCC/C=C/c2ccc(Cl)cc2)c(CCC(=O)O)c1` [1 (t), 3-[1-[6-(4-chlorophenyl)hex-5E-enyl]oxy-4-(4-dimethylaminocarbonylbutanamido)benzen-2-yl]propionic acid]: the IC50 stood at 220 nM.

As to `COc1ccc(/C=C/CCCCOc2ccc(N(C(C)=O)S(C)(=O)=O)cc2CCC(=O)O)cc1` [Example 9, 3-[1-[6-(4-methoxyphenyl)hex-5E-enyl]oxy-4-(N-acetyl-N-mesyl)aminobenzen-2-yl]propionic acid], the 50% inhibitory concentration (IC50) stood at 10 nM.

The molecule `COc1ccc(/C=C/CCCCOc2ccc(NC(=O)c3cccc(C(=O)N(C)C)c3)cc2CCC(=O)O)cc1` [1 (u), 3-[1-[6-(4-methoxyphenyl)hex-5E-enyl]oxy-4-(3-dimethylaminocarbonylbenzamido)benzen-2-yl]propionic acid] returned an IC50 of 80 nM.

`COc1ccc(CCCCCCOc2cccc(OCCCCC(=O)N(C)C)c2CCC(=O)O)cc1` [30 (b), 3-[1-[6-(4-methoxyphenyl)hexyl]oxy-3-(4-dimethylaminocarbonylbutyl)oxybenzen-2-yl]propionic acid]: the IC50 came out at 150 nM.

The molecule `COc1cccc(/C=C/CCCCOc2ccc(NC(=O)CCCC(=O)N(C)C)cc2CCC(=O)O)c1` [1 (m), 3-[1-[6-(3-methoxyphenyl)hex-5E-enyl]oxy-4-(4-dimethylaminocarbonylbutanamido)benzen-2-yl]propionic acid] displayed an IC50 of 490 nM.

`COc1ccc(/C=C/CCCCOc2ccc(N(S(=O)(=O)Cc3ccccc3)S(=O)(=O)Cc3ccccc3)cc2CCC(=O)O)cc1` [10 (c), 3-[1-[6-(4-methoxyphenyl)hex-5E-enyl]oxy-4-bis(benzylsulfonyl)aminobenzen-2-yl]propionic acid]: the IC50 is 1000 nM.

For `COc1ccc(/C=C/CCCCOc2ccc(N3C(=O)CCCS3(=O)=O)cc2CCC(=O)O)cc1` [Example 12, 3-[1-[6-(4-methoxyphenyl)hex-5E-enyl]oxy-4-(perhydro-1,2-thiazin-1,1,3-trione-2-yl]benzen-2-yl]propionic acid], the IC50 was found to be 7 nM.

The molecule `COc1ccc(CCC(O)/C=C/CCCCOc2ccc(NC(=O)CCCC(=O)N(C)C)cc2CCC(=O)O)cc1` (centres unmarked) [5 (c), 3-[1-[5E-7-hydroxy-9-(4-methoxyphenyl)nonenyl]oxy-4-dimethylaminocarbonylbutanamidobenzen-2-yl]propionic acid] had an IC50 of 700 nM.

As for `COc1ccc(CCCCCCOc2ccc(NS(=O)(=O)c3ccc(C)cc3)cc2CCC(=O)O)cc1` [Example 6, 3-[1-[6-(4-methoxyphenyl)hexyl]oxy-4-(4-methylphenyl)sulfonylaminobenzen-2-yl]propionic acid], the IC50 was 80 nM.

For the molecule `COc1ccc(/C=C/CCCCOc2ccc(N3C(=O)CCS3(=O)=O)cc2CCC(=O)O)cc1` [12 (b), 3-[1-[6-(4-methoxyphenyl)hex-5E-enyl]oxy-4-(isothiazolidin-1,1,3-trione-2-yl)benzen-2-yl]propionic acid], the IC50 came to 6 nM.

In turn, `CCCCCCC(=O)Nc1ccc(OCCCC/C=C/c2ccc(OC)cc2)c(CCC(=O)O)c1` [Example 3, 3-[1-[6-(4-methoxyphenyl)hex-5E-enyl]oxy-4-heptanamidobenzen-2-yl]propionicacid] yielded an IC50 of 170 nM.

In the case of `CCCCCCCCC(O)/C=C/CCCCOc1ccc(NC(=O)CCCC(=O)N(C)C)cc1CCC(=O)O` (centres unmarked) [Example 5, 3-[1-(5E-7-hydroxypentadecenyl)oxy-4-(4-dimethylaminocarbonylbutanamido)benzen-2-yl]propionic acid], the IC50 was 20 nM.

For the molecule `CCCCCCCCC(O)/C=C/CCCCOc1cccc(OCCCCC(=O)N(C)C)c1CCC(=O)O` (centres unmarked) [Example 29, 3-[1-(5E-7-hydroxypentadecenyl)oxy-3-(4-dimethylaminocarbonylbutyl)oxybenzen-2-yl]propionic acid], the IC50 is 18 nM.

For the molecule `COc1ccc(/C=C/CCCCOc2ccc(NC(=O)CCCC(=O)N3CCOCC3)cc2CCC(=O)O)cc1` [Example 1, 3-[1-[6-(4-methoxyphenyl)hex-5E-enyl]oxy-4-(5-oxo-5-morpholinopentanamido)benzen-2-yl]propionic acid], the IC50 came out at 130 nM.

Turning to `CN(C)C(=O)CCCC(=O)Nc1ccc(OCCCC/C=C/C(O)C2CCCCC2)c(CCC(=O)O)c1` (centres unmarked) [5 (e), 3-[1-(5E-7-hydroxy-7-cyclohexylheptenyl)oxy-4-dimethylaminocarbonylbutanamidobenzen-2-yl]propionic acid], the IC50 was 350 nM.

The molecule `CCCCCC(O)/C=C/CCCCOc1ccc(NC(=O)CCCC(=O)N(C)C)cc1CCC(=O)O` (centres unmarked) [5 (b), 3-[1-(5E-7-hydroxydodecenyl)oxy-4-dimethylaminocarbonylbutanamidobenzen-2-yl]propionic acid] had an IC50 of 300 nM.

In turn, `CCCCCCCCC(O)/C=C/CCCCOc1ccc(N2C(=O)CCCS2(=O)=O)cc1CCC(=O)O` (centres unmarked) [Example 13, 3-[1-(5E-7-hydroxy-n-pentadecenyl)oxy-4-(perhydro-1,2-thiazin-1,1,3-trione-2-yl)benzen-2-yl]propionic acid] returned an IC50 of 45 nM.
